Data taken from US20090053139A1, “Dendrimer based compositions and methods of using the same” (Regents of the University of Michigan, priority 2006, published 2009).

What was measured:
KB cells = experiment: Inhibition of KB cell growth (XTT assay / total cell protein); type: cell-based, human
Method: Cell culture and treatment.
Evaluation of dendrimer cytotoxicity. Cell growth was determined by assay of the total protein in lysates of treated cells using a bicinchoninic acid reagent (PIERCE, and by XTT assay, using a kit from Roche.
Because the binding of the conjugate to KB cells reaches maximal uptake within 1 h (Quintana et al, 2002. Pharmaceutical Research 19: 1310-1316), the effect of the G5-FI-FA-MTX on cell growth was initially tested by pre-incubation of cells with the conjugate for 1 h, followed by incubation in a drug-free medium for 5 d. […] When the cells were pre-incubated with dendrimers for 4 h, there was a modest decrease of about 10% in cell growth as determined by XTT assay. The cytotoxicity measurements were therefore done by incubation with the dendrimer for a minimum of 24 h, a pre-incubation time period shown to induce significant cytotoxicity.
Time course and dose dependent inhibition of cell growth. Previous studies have shown that MTX-induced cytotoxicity is detectable in vitro only if the medium is completely deprived of FA (See, e.g., Sobrero & Bertino, Int. J. Cell Cloning 4, 51 (1986)). The effect of the trifunctional dendrimers on cell growth was tested in cells incubated in a FA-deficient medium. Cells were treated with 300 nM conjugates (equivalent of 1500 nM MTX) or 1500 nM free MTX for 1-4 days, and cell proliferation was determined by estimation of cellular protein content. […] KB cells which express high and low FAR were incubated with 30 nM of the dendrimers for 1 hr at 37° C., rinsed, and the fluorescence of cells was determined by flow cytometric analysis (See. e.g., FIG. 21, left panel). […]
As the G5-FITC-FA-MTX preparation contained equimolar concentrations of MTX and FA, the effect of similar concentrations of free MTX and free FA on the inhibition of cell growth was determined. […] The cells were rinsed to remove the drugs and incubated with fresh medium for an additional 6 d, and total cell protein was determined. […]

human KB xenografts = experiment: Tumor growth and survival of SCID mice bearing s.c. human KB xenografts; type: in vivo
Method: (§1) Delivery of targeted nanoparticle therapeutic.
Targeted drug delivery to tumor cells through the folate receptor. The efficacy of different doses of conjugates was tested on SCID CB-17 mice bearing s.c. human KB xenografts and was compared with equivalent and higher doses of free methotrexate. […] Six groups of SCID mice with five mice in each group were injected s.c. on one flank with 5×10^6 KB cells in 0.2 mL PBS suspension. The highest total dose of G5-FI-FA-MTX therapeutic used equals 55.0 mg/kg and is equivalent to a 5.0 mg/kg total cumulative dose of free methotrexate (FIG. 29). The therapeutic dose of the conjugate was compared with three cumulative doses of free methotrexate equivalent to 33.3, 21.7, and 5.0 mg/kg accumulated in 10 to 15 injections based on mouse survival. Saline and the conjugate without methotrexate (G5-FI-FA) were used as controls.
The equivalent dose of methotrexate delivered with both targeted conjugates to the surviving mice was higher than the dose of free methotrexate because all of the mice receiving free methotrexate died by day 66 of the trial (FIG. 30). The survival of mice from groups receiving G5-FI-FA-MTX or G5-FA-MTX conjugate indicate that tumor growth based on the end-point volume of 4 cm3 can be delayed by at least 30 days (FIG. 30). This value indicates the antitumor effectiveness of the conjugate because it mimics clinical end-points and requires observation of the mice throughout the progression of the disease. […] The tumor in this mouse was not palpable for the next 20 days up to the 60th day of the trial. […] Thus, in some embodiments, the present invention provides a composition comprising a dendrimer comprising a targeting agent, a therapeutic agent and an imaging agent. In preferred embodiments, the dendrimer is used for delivery, in a target specific manner, of a therapeutic agent (e.g., methotrexate) to tumor cells in vivo.

[1] = Toxicity of dendrimer conjugates and free methotrexate in SCID mice; type: in vivo
From the text: as §1
Toxicity of dendrimer conjugates. […] No morphologic abnormalities were observed on the histopathology examination.
The remaining experimental groups had very uniform body weight fluctuations nonindicative of toxicity when compared with control groups with saline or conjugate without methotrexate.

| Compound | reversal of MTX-induced growth arrest by free FA (KB cells; 150 nM FA with 150 nM MTX, 24 h, then 6 d, total cell protein) | effect on tumor growth (human KB xenografts; cumulative dose equivalent to 5.0 mg/kg methotrexate (G5-FI-FA equimolar dendrimer)) | effect on tumor growth (human KB xenografts; free methotrexate cumulative 33.3 and 21.7 mg/kg) | survivors at termination of the trial (human KB xenografts; second 99-day trial) | inhibition of cell growth (XTT assay) (KB cells; 1, 2 or 3 days) | growth inhibition of free MTX versus equimolar MTX in conjugate (KB cells; below 1 μM) | liver histopathology ([1]; mouse, in vivo) | toxicity (body weight) ([1]; total dose equivalent to 5.0 mg/kg free methotrexate) |
| --- | --- | --- | --- | --- | --- | --- | --- | --- |
| Nc1nc2ncc(CNc3ccc(C(=O)N[C@@H](CCC(=O)O)C(=O)O)cc3)nc2c(=O)[nH]1 [FA, Folic Acid] | almost completely reversed the growth-arrest caused by 150 nM MTX |  |  |  |  |  |  |  |
| CN(Cc1cnc2nc(N)nc(N)c2n1)c1ccc(C(=O)N[C@@H](CCC(=O)O)C(=O)O)cc1 [MTX, Methotrexate] |  | no effect on tumor growth | affecting tumor growth | no mice surviving | time-dependent cytotoxicity | higher than with the equimolar concentrations of MTX in the G5-FITC-FA-MTX | advanced liver lesions, collections of inflammatory cells, and periportal inflammation | neither the total accumulated dose of therapeutic conjugate equivalent to 5.0 mg/kg free methotrexate nor free methotrexate at the same dose were toxic |
